The record followed here is patent publication US20190315775A1, “MODIFIED […] AND PHARMACEUTICAL COMPOSITION HAVING SAME AS ACTIVE INGREDIENT” (KEIO UNIVERSITY, priority 2016, published 2019).

The nature of data set [1]: Water solubility of drugs (saturation concentration by HPLC). As to conditions: 100 mM Tris-HCl (pH 7.5); for Water solubility: 25° C., saturation concentration; for Water solubility, relative ratio (numerals in parentheses): relative to TC11. It is filed as physicochemical.
In data set [2] the target is T1, cereblon (CRBN) (Homo sapiens, UniProt Q96SW2).
T1 construct: recombinant full-length CRBN prepared by the above method was reacted with the beads; T7 tag (N); FLAG tag (C); made in house; host or cells: 293T cells (pcDNA3.3 vector), RIPA extract purified on Ni Sepharose excel
T1 sequence (Q96SW2 whole entry): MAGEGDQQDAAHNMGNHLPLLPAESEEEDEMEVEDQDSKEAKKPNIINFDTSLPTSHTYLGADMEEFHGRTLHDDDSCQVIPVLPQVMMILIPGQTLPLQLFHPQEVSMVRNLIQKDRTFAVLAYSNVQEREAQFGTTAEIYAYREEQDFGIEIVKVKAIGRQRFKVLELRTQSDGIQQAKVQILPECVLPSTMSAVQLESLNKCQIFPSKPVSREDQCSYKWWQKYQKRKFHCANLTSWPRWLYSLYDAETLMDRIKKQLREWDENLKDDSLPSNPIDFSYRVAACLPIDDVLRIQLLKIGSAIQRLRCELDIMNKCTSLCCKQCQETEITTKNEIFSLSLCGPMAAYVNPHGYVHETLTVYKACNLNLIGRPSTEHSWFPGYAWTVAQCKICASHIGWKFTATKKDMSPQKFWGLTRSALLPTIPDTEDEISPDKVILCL
The data set can be described thus: Surface plasmon resonance biosensor (BIACORE 3000) interaction with cereblon. The format is binding. As to conditions: measured at 1 μM, 2 μM and 10 μM, FIG. 9C. Background: Surface plasmon resonance follows binding to a sensor surface in real time, without labels.

Data set [3] deals with high-risk MM cell lines. The data set can be described thus: MTT cell proliferation inhibition, panel of high-risk MM cell lines. The following applies: Homo sapiens, range over the cell lines of Table 2, 48 hours. It is filed as cell-based. As to the method:
(§1) For examination of cell proliferation inhibitory activity, high-risk MM cell lines (KMM1, KMS11, KMS21, KMS26, KMS28, KMS34) established by Takemi Otsuki et al., of Kawasaki Medical School were used (Otsuki, T. et al., Int. J. Oncol., 15: 1205-1212, 1999). […] The genetic abnormality of these cell types, and in particular deletion of p53 gene were examined by FISH method (Chang, H. Blood, 105: 358-360, 2005) (WO2010/061862A1). […] These high-risk MM cell lines were treated with drugs such as TC11, HOEtO-TC11, PEG11(E)-TC11, and PEG11(O)-TC11 at arbitrary concentrations. […] Specifically, each high-risk MM cell line was prepared at a concentration of 2×10^5 cells/ml, and then seeded in an amount of 50 μl (1×10^4 cells) per well. After 24 hours, drugs such as TC11, HOEtO-TC11, PEG11(E)-TC11, and PEG11(O)-TC11 having arbitrary concentrations were added. At 48 hours after addition of each drug, 10 μL each of an MTT labeling reagent in Cell Proliferation Kit I [MTT] (Roche Diagnostics, Basel, Switzerland) was added. After 4 hours of treatment at 37° C., 100 μL each of solution buffer was added and then left to stand overnight at 37° C. Absorbance was measured using a microplate reader Infinit™ M1000 (Tecan, Maennedorf, Switzerland) at a wavelength of 570 nm. Cell viability was found from an absorbance ratio using absorbance at 0 μM designated as 100%. IC50 was calculated from a semi-logarithmic chart using Microsoft (registered trademark) Excel.

Data set [4] deals with KMM1 high-risk MM cell line. The data set can be described thus: MTT cell proliferation inhibition, KMM1. It is filed as cell-based. The following applies: Homo sapiens, KMM-1, KMM1, t(6;14), t(8;14), del17, 48 hours, read-out: IC50, cell proliferation inhibitory activity, KMM1. As to the method:
as §1

The next data set relates to MUM24 MM cell line. The data set can be described thus: MTT cell proliferation inhibition, MUM24. It is filed as cell-based. As to conditions: Homo sapiens, MUM24, t(4;14), del13, del17, 48 hours, read-out: IC50, cell proliferation inhibitory activity, MUM24.
Data set [5] deals with KMS34 high-risk MM cell line. The data set can be described thus: MTT cell proliferation inhibition, KMS34. It is filed as cell-based. The following applies: Homo sapiens, KMS-34, KMS34, t(4;14), del17, 48 hours, read-out: IC50, cell proliferation inhibitory activity, KMS34. How it is done: as §1
Data set [6] deals with KMS11 high-risk MM cell line. The data set can be described thus: MTT cell proliferation inhibition, KMS11. It is filed as cell-based. The following applies: Homo sapiens, KMS-11, KMS11, t(4;14), del17, 48 hours, read-out: IC50, cell proliferation inhibitory activity, KMS11. How it is done:
as §1

In a further data set the test system is KMS11 xenograft. The data set can be described thus: Antitumor effect on KMS11 cancer-bearing mice (Example 17). The format is in vivo, ICR/SCID mice. How it is done: KMS11 was administered to 5-week-old ICR/SCID mice at 2×10^7 cells/mouse via hypodermic injection. Tumor volumes were measured over time, and the day on which the tumor volume exceeded 50 mm^3 was designated as Day 1 and observation was performed for 9 days. […] On the day of administration, these solutions were diluted 10-fold with physiological saline while stirring with Vortex, and then intraperitoneally administered. Tumor volume was calculated by the following formula.
Tumor volume (mm^3)=major axis×minor axis×minor axis×π/6=major axis×minor axis×minor axis×0.5236

Data set [7] relates to KMS26 high-risk MM cell line. The data set can be described thus: MTT cell proliferation inhibition, KMS26. The format is cell-based. The following applies: Homo sapiens, KMS-26, KMS26, t(4;14), t(4;16), del17, 48 hours, read-out: IC50, cell proliferation inhibitory activity, KMS26. How it is done:
as §1

In data set [8] the test system is KMS21 high-risk MM cell line. The data set can be described thus: MTT cell proliferation inhibition, KMS21. It is filed as cell-based. The following applies: Homo sapiens, KMS21, t(11;14), 48 hours, read-out: IC50, cell proliferation inhibitory activity, KMS21. How it is done: as §1
Moreover, the concentration dependency of the in vitro cell proliferation inhibitory activity of TC11, and its derivatives, PEG11(E)-TC11 and HOEtO-TC11 against high-risk MM cell line (KMS21) was examined in detail (FIG. 4). […] Such a phenomenon was similarly observed for other high-risk MM cell lines, KMS11, KMS34, and MUM24.

Data set [9] concerns KMS34 high-risk MM cell line. The data set can be described thus: WST-1 cell proliferation inhibition (Example 8), KMS34. The format is cell-based. The following applies: Homo sapiens, KMS-34, WST-1, 48 hours, read-out: IC50, cell proliferation inhibitory activity, KMS34. As to the method: (§2) Similar to Example 7, high-risk MM cell lines were treated with drugs, TC11 and PEG5(E)-TC11 at arbitrary concentrations. […] Specifically, each high-risk MM cell line was prepared at 5×10^5 cells/ml, and then seeded at 50 μl per well (2.5×10^4 cells). Drugs such as TC11, and PEG5(E)-TC11 were added to wells at arbitrary concentrations. WST-1 reagent was added at 48 hours after addition of drugs. After 1 hour of reaction at 37° C. in a CO2 incubator, absorbance was measured at a wavelength of 450 nm using a microplate reader. Cell viability was found from an absorbance ratio using absorbance at 0 μM designated as 100%. IC50 was calculated from a semi-logarithmic chart using Microsoft (registered trademark) Excel.
In general terms: Tetrazolium assays rely on reduction of a dye to a coloured formazan, in cell work by metabolically active cells.

The subject of data set [10] is KMM1 high-risk MM cell line. The data set can be described thus: WST-1 cell proliferation inhibition (Example 8), KMM1. It is filed as cell-based. The following applies: Homo sapiens, KMM-1, WST-1, 48 hours, read-out: IC50, cell proliferation inhibitory activity, KMM1. As to the method:
as §2

The test system of data set [11] is high-risk MM cell lines. The data set can be described thus: WST-1 cell proliferation inhibition (Example 8), panel of high-risk MM cell lines. The format is cell-based. The following applies: Homo sapiens; range over the cell lines of Table 3; WST-1, 48 hours. How it is done:
as §2

Data set [12] relates to KMS11 high-risk MM cell line. The data set can be described thus: WST-1 cell proliferation inhibition (Example 8), KMS11. As to conditions: Homo sapiens, KMS-11, WST-1, 48 hours, read-out: IC50, cell proliferation inhibitory activity, KMS11. The format is cell-based. As to the method:
as §2

For data set [13], the system named is KMS21 high-risk MM cell line. The data set can be described thus: WST-1 cell proliferation inhibition (Example 8), KMS21. It is filed as cell-based. As to conditions: Homo sapiens, WST-1, 48 hours, read-out: IC50, cell proliferation inhibitory activity, KMS21. As to the method:
as §2

Data set [14] deals with T1, cereblon (CRBN). The data set can be described thus: Pull-down assay of cereblon with biotinylated drug on streptavidin beads. As to conditions: 30° C., 30 minutes, FIG. 9A. The format is binding. As to the method:
CRBN was prepared as follows. A T7 tag was added 5′-upstream of, and a FLAG tag and a histidine tag were added 3′-downstream of a full-length CRBN gene. The gene was introduced into a pcDNA3.3 expression vector (Invitrogen), thereby constructing a plasmid DNA. Next, a Kozak sequence was added 5′-upstream of the T7 tag using a KOD-Plus-Mutagenesis Kit (TOYOBO). The plasmid DNA was transfected into 293T cells. After 4 days of culture at 37° C. with 5% CO2, cells were extracted with a RIPA buffer (Thermo), and then the extracted fraction was purified using Ni Sepharose excel (GE Healthcare). Since the purified fraction contained imidazole, TBS (Nacalai Tesque) was subjected to buffer exchange. […] Centrifugation was performed to separate the resultants into a flow-through (F) fraction and a bead (B) fraction. Protein bands corresponding to CRBN were separated by SDS-PAGE, and then detected by Western blot. […] Note that “I” indicates “Input fraction”.

pIC50: −log10 of the molar value.

With `CC(C)c1cccc(C(C)C)c1N1C(=O)c2cc(N)c(OCCO[C@@H]3OC(CO)[C@@H](O)[C@H](O)C3O)cc2C1=O` (stereo partly drawn) [Glu-TC11], in [1], the Water solubility is given as 0.082 g/100 ml and the “Water solubility, relative ratio (numerals in parentheses)” value (shortened to “Water solubility, relative ratio”) is recorded as 41 ×.

Turning to `CC(C)c1cccc(C(C)C)c1N1C(=O)c2cc(N)c(OCCO)cc2C1=O` [HOEtO-TC11, hydroxyethoxy-TC11], the “Binding to CRBN (SPR sensorgram)” value at cereblon (CRBN) [2] is on record as “never bind to CRBN”. Besides, the pIC50 in the data set with high-risk MM cell lines [3] was 5.10 to 6.00; in [4], 5.11; in the data set on MUM24 MM cell line, 5.40; in data set [5], 5.39; in data set [6], 5.41; in data set [7], 5.72. Further, in [8], the pIC50 was 5.62. The same molecule registered a Water solubility in data set [1] of 0.027 g/100 ml. In addition, the “Water solubility, relative ratio” value in [1] was found to be 13.5 ×. Besides, the “KMS-11 tumor growth, level relative to the control” value with KMS11 xenograft (Day 9, HOEtO-TC11 71.1 mg/kg BW i.p.) is recorded as “about ⅓”. Besides, the “KMS-11 tumor growth, level relative to TC11” value with KMS11 xenograft (Day 9, HOEtO-TC11 71.1 mg/kg BW i.p. vs TC11 60 mg/kgBW) was “about a half”. The “KMS-11 tumor growth compared to control mice” value in the data set on KMS11 xenograft (Day 9, i.p., equimolar to TC11 60 mg/kgBW) is on record as “tumor growth was suppressed”.

Consider `COCCOCCOCCOCCOCCC(=O)OCCOc1cc2c(cc1N)C(=O)N(c1c(C(C)C)cccc1C(C)C)C2=O` [PEG5(E)-TC11], for which the Water solubility in data set [1] came out at 0.002 g/100 ml. In addition, in [1], the “Water solubility, relative ratio” value came to 1 ×. Besides, the pIC50 in data set [9] is 5.19; in [10], 5.44; in the data set on high-risk MM cell lines [11] it was 5.34 to 5.89; in [12] it was 5.85; in data set [13] it was 5.92.

For `Nc1cccc2c1CN(C1CCC(=O)NC1=O)C2=O` (stereo not drawn) [lenalidomide, reference compound], the “In vivo anti-tumor effect compared to HOEtO-TC11” value in the data set on KMS11 xenograft (lenalidomide 49.9 mg/kgBW i.p., KMS11 xenograft) is reported as “clearly weaker than that of HOEtO-TC11”.

Consider `O=C1CCC(N2C(=O)c3ccccc3C2=O)C(=O)N1` (stereo not drawn) [thalidomide], for which, on cereblon (CRBN) [14], the “Binding of CRBN to drug immobilized on beads (pull-down, Western blot)” value was “bound”.
